This passage reports logP results from the OPERA property sets (Mansouri et al. 2018).

`CO[C@@]1(NC(=O)Cc2cccs2)C(=O)N2C(C(=O)O)=C(COC(N)=O)CS[C@@H]21` showed a log partition coefficient (logP) of -0.02.
With `CCCCCCC(C)(C)c1ccc(C2CCCC(O)C2)c(O)c1` (stereo not drawn) the figure was 6.68; with `c1ccc(-c2ncn[nH]2)cc1`, 1.54; with `CC1CCCc2nccc(=O)n21` (stereo not drawn), 0.3.
With `Cc1cccc(C2C(=O)c3ccccc3C2=O)c1` the figure was 3.46; with `COC(=O)c1ccc(N)cc1`, 1.37; with `CCCOc1ccc(Cc2cnc(N)nc2N)cc1OC`, 2.02.
With `CCOc1cc(Cc2cnc(N)nc2N)ccc1OC` the figure was 1.2.
For `CSC(C)=NOC(=O)N(C)SN(C(=O)N(C)C)C1CC1`, the logP worked out at 2.
In the case of `O=c1nc(-c2ccccc2)c2ccccc2[nH]1` it was 1.91; in that of `CCCCCCCCc1ccc(C2C(=O)c3ccccc3C2=O)cc1`, 6.93.
In the case of `Nc1nc(N)c2nc(-c3ccc(O)cc3)c(N)nc2n1` it was 0.92; in that of `CC(C)C(=O)O`, 0.94; in that of `COC1CC2(C)C(O)CCC2C2CCc3cc(O)ccc3C12` (stereo not drawn), 2.72.
The compound `CC1(C)CC(N)CC(C)(C)N1O` gave a logP of 0.56.
In the case of `NC1CC1c1ccccc1` (stereo not drawn) it was 1.58; in that of `CC(=O)Nc1nc(NCC(O)CO)c(Cl)nc1[N+](=O)[O-]` (stereo not drawn), 0; in that of `CC(C)NC(=O)COc1ccc(OCCNCC(O)COc2ccccc2)cc1` (stereo not drawn), 2.4.
For the compound `CCCCCCC(C)(C)c1cc(O)c2c(c1)OC(C)(C)C1CC=C(C)CC21` (stereo not drawn), the logP was 9.96.
With `CCCCC/C=C\C/C=C\C/C=C\C/C=C\CCCC(=O)O` the figure was 6.98; with `CCC(CC)(C(=O)NC(N)=O)C(=O)OCc1ccccc1`, 2.74; with `COC(=O)C=COc1ccccc1Cl`, 3.02.
In the case of `CCN1CC(C(O)C(CC2CCCCC2)NC(=O)C(Cc2c[nH]cn2)NC(=O)C(CC(=O)N2CCOCC2)Cc2ccccc2)OC1=O` (stereo not drawn) it was 2.2.
In the case of `COC(=O)C(C(=O)OC)=C1SCCS1` it was 1.51; in that of `COC(=O)C1=C(C)NC(C)=C(C(=O)OCCN(C)Cc2ccccc2)C1c1cccc([N+](=O)[O-])c1` (stereo not drawn), 3.82.
In turn, `Cc1coc2ccc3ccc(=O)oc3c12` showed a logP of 2.38.
With `Cc1cc(Br)cc(C(=O)NC2CC2)c1O` the figure was 3.8; with `Cc1ncc(NS(=O)(=O)c2ccc(N)cc2)c(C)n1`, 0.59.
With `CC1c2nc3ccccc3c(=O)n2CN1CCc1ccccc1` (stereo not drawn) the figure was 1.8; with `CCCCCc1cc(O)c2c(c1)OC(C)(C)C1CC=C(C)CC21` (stereo not drawn), 7.41; with `CCCCCCCc1ccncc1`, 5.
With `O=C(CN1CCCCC1)Nc1ccc(Cl)c(Cl)c1` the figure was 3.65; with `O=C1C2C3C=CC(C4C=CC43)C2C(=O)N1CCCCN1CCN(c2ncccn2)CC1` (stereo not drawn), 1.79.
`COc1ccc(Cc2cnc(N)nc2N)cc1C(C)C` registered a logP of 2.79.
In the case of `Cc1ccc(C)c(O)c1C` it was 2.67.
In the case of `Cc1cn([C@H]2CC[C@@H](CO)O2)c(=O)[nH]c1=O` it was -0.6.
`Cc1cn([C@H]2C=C[C@@H](CO)O2)c(=O)[nH]c1=O`: the logP was -0.72.
In the case of `Cc1ccc(N(C)C)cc1` it was 2.81; in that of `CC(C(=O)NCC(O)CO)n1ccnc1[N+](=O)[O-]` (stereo not drawn), -1.64.
With `CCCCCCCOC1OC(CO)C(O)C(O)C1O` (stereo not drawn) the figure was 0.73; with `CC(N)CC1CCCCC1` (stereo not drawn), 2.96; with `CNC1CCc2ccccc2C1` (stereo not drawn), 2.38.
With `CC(C(N)=O)n1nnc2ccccc21` (stereo not drawn) the figure was 0.35.
In the case of `NCCc1cnc[nH]1`, the logP is -0.7.
In the case of `O=C(Cn1ccnc1[N+](=O)[O-])NCc1ccccc1` it was 0.91; in that of `c1ccc(C2CCCN2)cc1` (stereo not drawn), 1.89; in that of `Cc1ccc(N(CCO)CCO)cc1`, 1.09.
In the case of `O=C(c1ccc(-c2ccccc2)cc1)c1ccc2n1CCC2C(=O)O` (stereo not drawn) it was 4.27.

As a reminder, the logP is the decadic logarithm of the partition coefficient of the neutral form, usually between octanol and water. Low values mean lower lipophilicity, high ones higher lipophilicity.
